Structures can show the parent of a compound that is named as a salt.
target: T1, Full-length PRMT5 enzyme co-expressed with MEP50 (Homo sapiens (Human), UniProt O14744); test: PRMT5 Biochemical Assay; details: 200 nM histone H4 derived peptide substrate, 1 μM S-Adenosyl methionine, 4 hours at 37° C, Transcreener EPIGEN fluorescence polarisation
Description: (§1) Compounds of the invention may be tested for in vitro activity in the following assay: A histone H4 derived peptide is used as substrate (amino acid sequence: […]NH2). Full-length PRMT5 enzyme (NCBI Reference sequence NP-006100.2) was co-expressed with Hiss-MEP50 in insect cells and purified via Nickel immobilized metal affinity and gel filtration chromatography (“the enzyme”).
(§2) The 6 μL assay reactions are run in Greiner brand black 384-well low volume plates. All reactions contained assay buffer (phosphate buffered saline, 0.01% (v/v) Tween-20, 0.01% (w/v) albumin from chicken egg white, 1 mM dithiothreitol, 200 nM peptide substrate, 1 μM S-Adenosyl methionine, and 15 ng/reaction enzyme, with the enzyme being omitted from negative control reactions. Compounds were added in a volume of 100 nL from dilution series prepared in DMSO, positive and negative control reactions receiving the same volume DMSO without compound. The plates were sealed with adhesive seals and incubated for 4 hours at 37° C. Reaction progress was measured using the Transcreener™ EPIGEN methyltransferase assay (BellBrook Labs, Madison, Wis.) as recommended by the manufacturer. To each reaction 2 μL detection mix were added, containing coupling enzymes, fluorescence polarisation tracer, and AMP antibody. Plates were incubated for 90 min before being read on a PerkinElmer EnVision™ plate reader in fluorescence polarisation mode.

T1 sequence (O14744 whole entry): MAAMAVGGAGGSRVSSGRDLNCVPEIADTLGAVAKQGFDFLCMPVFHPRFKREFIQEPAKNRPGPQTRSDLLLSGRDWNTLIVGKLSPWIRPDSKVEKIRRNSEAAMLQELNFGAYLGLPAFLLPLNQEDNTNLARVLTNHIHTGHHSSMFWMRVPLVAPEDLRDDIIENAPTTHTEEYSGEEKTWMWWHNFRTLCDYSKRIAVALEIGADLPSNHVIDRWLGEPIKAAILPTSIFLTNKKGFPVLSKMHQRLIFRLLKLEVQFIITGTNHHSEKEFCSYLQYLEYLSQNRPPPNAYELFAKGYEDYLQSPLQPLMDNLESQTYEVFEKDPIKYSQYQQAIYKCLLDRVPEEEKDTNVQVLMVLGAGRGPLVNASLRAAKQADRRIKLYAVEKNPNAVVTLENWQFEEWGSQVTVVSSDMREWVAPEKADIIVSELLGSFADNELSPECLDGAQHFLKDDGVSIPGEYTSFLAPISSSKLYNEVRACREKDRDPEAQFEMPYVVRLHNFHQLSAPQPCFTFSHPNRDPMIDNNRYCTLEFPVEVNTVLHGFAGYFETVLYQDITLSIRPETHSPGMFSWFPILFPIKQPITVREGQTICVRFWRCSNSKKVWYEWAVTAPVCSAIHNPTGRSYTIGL
T1 sequence (Q9BQA1 whole entry partner): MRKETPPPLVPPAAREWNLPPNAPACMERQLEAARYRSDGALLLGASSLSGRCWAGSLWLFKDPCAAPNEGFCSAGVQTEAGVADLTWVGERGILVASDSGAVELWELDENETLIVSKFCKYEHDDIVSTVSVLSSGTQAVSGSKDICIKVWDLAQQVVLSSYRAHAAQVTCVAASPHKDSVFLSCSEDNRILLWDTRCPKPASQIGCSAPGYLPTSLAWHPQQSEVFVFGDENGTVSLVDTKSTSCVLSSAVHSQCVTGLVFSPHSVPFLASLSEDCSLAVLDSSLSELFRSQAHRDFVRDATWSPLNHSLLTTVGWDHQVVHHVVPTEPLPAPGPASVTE

Row | IC50 | Structure (SMILES)
1 | 69400 nM | O=C(NCC(O)CNC1Cc2ccc(Br)cc2C1)c1ccc(Cl)cc1 (stereo not shown) [Compound 28, N-(3-((5-Bromo-2,3-dihydro-1H-inden-2-yl)amino)-2-hydroxypropyl)-4-chlorobenzamide]
2 | 1550 nM | COc1ccc(-c2cc(C(=O)NC[C@H](O)CNC3Cc4ccccc4C3)no2)cc1 [Compound 6, (R)-N-(3-((2,3-Dihydro-1H-inden-2-yl)amino)-2-hydroxypropyl)-5-(4-methoxyphenyl)isoxazole-3-carboxamide]
3 | 1110 nM | O=C(NCC(O)CNC1Cc2ccccc2C1)c1ccc(C(=O)N2CCCC2)cc1 (stereo not shown) [Compound 21, N-(3-((2,3-Dihydro-1H-inden-2-yl)amino)-2-hydroxypropyl)-4-(pyrrolidine-1-carbonyl)benzamide]

Row | Structure (SMILES) | IC50
4 | O=C(NCC(O)CNC1Cc2ccccc21)c1ccc(Cl)cc1 (stereo not shown) [Compound 34, N-(3-(Bicyclo[4.2.0]octa-1(6),2,4-trien-7-ylamino)-2-hydroxypropyl)-4-chlorobenzamide] | 41100 nM

target: T1, Full-length PRMT5 enzyme co-expressed with MEP50; test: Revised PRMT5 Biochemical Assay; details: 1 μM histone H4 derived peptide substrate, 1 μM S-Adenosyl methionine, 4 hours at 37 degree Celsius, Transcreener EPIGEN fluorescence polarisation
Description: as §1
as §2, with “6 μL reactions are” for “6 μL assay reactions are”, “low volume assay plates. All” for “low volume plates. All”, “1 mM Dithiothreitol, 1 μM peptide substrate,” for “1 mM dithiothreitol, 200 nM peptide substrate,”, “hours at 37 degree Celsius. Reaction progress” for “hours at 37° C. Reaction progress”, “for 90 minutes before being” for “for 90 min before being”, “polarisation mode. IC50 values were obtained from the raw readings by calculating percent inhibition (% I) for each reaction relative to controls on the same plate (% I=(I−CN)/(CP−CN) where CN/CP are the averages of the negative/positive reactions, respectively), then fitting the % I data vs. compound concentration [I] to % I=([…]) where A is the lower asymptote, B is the upper asymptote, C is the IC50 value, and D is the slope.” for “polarisation mode.”

Row | IC50 | Structure (SMILES)
5 | 253 nM | COCC1CCCCN1C(=O)c1ccc(C(=O)NC[C@@H](O)CNC2Cc3ccccc3C2)cc1 (stereo partly drawn) [Compound 80, N-((S)-3-((2,3-dihydro-1H-inden-2-yl)amino)-2-hydroxypropyl)-4-(2-(methoxymethyl)piperidine-1-carbonyl)benzamide]
6 | 3460 nM | CC(=O)N1CCN(C(=O)Cc2ccc(C(=O)NCC(O)CNC3Cc4ccccc4C3)cc2)CC1 (racemic) [Compound 83, 4-(2-(4-acetylpiperazin-1-yl)-2-oxoethyl)-N-(3-((2,3-dihydro-1H-inden-2-yl)amino)-2-hydroxypropyl)benzamide]
7 | 180 nM | O=C(NC[C@@H](O)CNC1Cc2ccccc2C1)c1ccc(C(=O)N2CCC(CO)CC2)cc1 [Compound 61, (S)-N-(3-((2,3-dihydro-1H-inden-2-yl)amino)-2-hydroxypropyl)-4-(4-(hydroxymethyl)piperidine-1-carbonyl)benzamide]
8 | 1370 nM | COC1CCN(C(=O)c2ccc(C(=O)NC[C@@H](O)CNC3Cc4ccccc4C3)cc2)C1 (stereo partly drawn) [Compound 81, N-((S)-3-((2,3-dihydro-1H-inden-2-yl)amino)-2-hydroxypropyl)-4-(3-methoxypyrrolidine-1-carbonyl)benzamide]
9 | 1010 nM | CN(c1cc(C(=O)NCC(O)CNC2Cc3ccccc3C2)ccn1)C1CCCC1 (stereo not shown) [Compound 43, 2-(cyclopentyl(methyl)amino)-N-(3-((2,3-dihydro-1H-inden-2-yl)amino)-2-hydroxypropyl)isonicotinamide]
10 | 883 nM | CC(=O)N1CC(Nc2cc(C(=O)NCC(O)CNC3Cc4ccccc4C3)ncn2)C1 (stereo not shown) [Compound 58, 6-((1-Acetylazetidin-3-yl)amino)-N-(3-((2,3-dihydro-1H-inden-2-yl)amino)-2-hydroxypropyl)pyrimidine-4-carboxamide 2,2,2-trifluoroacetic acid salt]
11 | 341 nM | CC1(C)CN(C(=O)c2ccc(C(=O)NC[C@@H](O)CNC3Cc4ccccc4C3)cc2)CCO1 [Compound 72, (S)-N-(3-((2,3-dihydro-1H-inden-2-yl)amino)-2-hydroxypropyl)-4-(2,2-dimethylmorpholine-4-carbonyl)benzamide]
12 | 74600 nM | CC(=O)N1CCC(Nc2cncc(C(=O)NCC(O)CNC3Cc4ccccc4C3)n2)CC1 (stereo not shown) [Compound 52, 6-((1-Acetylpiperidin-4-yl)amino)-N-(3-((2,3-dihydro-1H-inden-2-yl)amino)-2-hydroxypropyl)pyrazine-2-carboxamide]
13 | 1100 nM | CC(=O)N1CCC(Nc2ccc(C(=O)NCC(O)CNC3Cc4ccccc4C3)cc2)CC1 (stereo not shown) [Compound 64, 4-((1-Acetylpiperidin-4-yl)amino)-N-(3-((2,3-dihydro-1H-inden-2-yl)amino)-2-hydroxypropyl) benzamide]
14 | 15400 nM | O=C(NC[C@@H](O)CNC1Cc2ccccc2C1)c1cccc2[nH]ncc12 [Compound 128, (S)-N-(3-((2,3-dihydro-1H-inden-2-yl)amino)-2-hydroxypropyl)-1H-indazole-4-carboxamide]
15 | 482 nM | CC1(C)COCCN1C(=O)c1ccc(C(=O)NC[C@@H](O)CNC2Cc3ccccc3C2)cc1 [Compound 102, (S)-N-(3-((2,3-dihydro-1H-inden-2-yl)amino)-2-hydroxypropyl)-4-(3,3-dimethylmorpholine-4-carbonyl)benzamide]
16 | 7680 nM | Cn1ccc(C(=O)NCC(O)CNC2Cc3ccccc3C2)cc1=O (racemic) [Compound 85, N-(3-((2,3-dihydro-1H-inden-2-yl)amino)-2-hydroxypropyl)-1-methyl 2-oxo-1,2-dihydropyridine-4-carboxamide]
17 | 4990 nM | O=C(NCC(O)CNC1Cc2ccccc2C1)c1cnn(-c2cccnc2)c1 (stereo not shown) [Compound 46, N-(3-((2,3-dihydro-1H-inden-2-yl)amino)-2-hydroxypropyl)-1-(pyridin-3-yl)-1H-pyrazole-4-carboxamide]
18 | 2530 nM | CC(=O)N1CCC(Nc2cccc(C(=O)NCC(O)CNC3Cc4ccccc4C3)n2)CC1 (stereo not shown) [Compound 57, 6-((1-Acetylpiperidin-4-yl)amino)-N-(3-((2,3-dihydro-1H-inden-2-yl)amino)-2-hydroxypropyl)picolinamide]
19 | 4590 nM | O=C(NC[C@@H](O)CNC1Cc2ccccc2C1)c1ccccc1Cl [Compound 131, (S)-2-chloro-N-(3-((2,3-dihydro-1H-inden-2-yl)amino)-2-hydroxypropyl)benzamide]
20 | 137 nM | CC(=O)N1CCC(Nc2cccc(C(=O)NC[C@@H](O)CNC3Cc4ccccc4C3)c2)CC1 [Compound 42, (S)-3-((1-Acetylpiperidin-4-yl)amino)-N-(3-((2,3-dihydro-1H-inden-2-yl)amino)-2-hydroxypropyl)benzamide]
21 | 585 nM | CC(=O)N1CCN(C(=O)c2ccc(C(=O)NCC(O)CNC3Cc4ccccc4C3)cc2)CC1 (racemic) [Compound 84, 4-(4-acetylpiperazine-1-carbonyl)-N-(3-((2,3-dihydro-1H-inden-2-yl)amino)-2-hydroxypropyl)benzamide]
22 | 25300 nM | O=C(NCC(O)CNC1Cc2ccccc2C1)c1ccnc(-n2cccn2)c1 (stereo not shown) [Compound 49, N-(3-((2,3-dihydro-1H-inden-2-yl)amino)-2-hydroxypropyl)-2-(1H-pyrazol-1-yl)isonicotinamide]
23 | 1380 nM | O=C(NCC(O)CNC1Cc2ccccc2C1)c1ccc2c(c1)CN(C(=O)CC1CC1)C2 (racemic) [Compound 92, 2-(2-cyclopropylacetyl)-N-(3-((2,3-dihydro-1H-inden-2-yl)amino)-2-hydroxypropyl)isoindoline-5-carboxamide]
24 | 505 nM | O=C(NCC(O)CNC1Cc2ccccc2C1)c1ccc2c(c1)CN(C(=O)CC1CC1)CC2 (racemic) [Compound 93, 2-(2-cyclopropylacetyl)-N-(3-((2,3-dihydro-1H-inden-2-yl)amino)-2-hydroxypropyl)-1,2,3,4-tetrahydroisoquinoline-7-carboxamide]
25 | 10000 nM | O=C(NC[C@H](O)CNC1Cc2ccccc2C1)c1ccc(C(=O)N2CCCCC2)nc1 [Compound 69, (R)-N-(3-((2,3-dihydro-1H-inden-2-yl)amino)-2-hydroxypropyl)-6-(piperidine-1-carbonyl)nicotinamide]

Row | Structure (SMILES) | IC50
26 | COc1cc(C(=O)N2C3CCC2COC3)ccc1C(=O)NC[C@@H](O)CNC1Cc2ccccc2C1 [Compound 134, 4-(3-Oxa-8-azabicyclo[3.2.1]octane-8-carbonyl)-N-((S)-3-((2,3-dihydro-1H-inden-2-yl)amino)-2-hydroxypropyl)-2-methoxybenzamide hydrochloride] | 238 nM
27 | CCOc1cc(CC(=O)N2C3CCC2COC3)ccc1C(=O)NC[C@@H](O)CNC1Cc2ccccc2C1 [Compound 129, 4-(2-(3-oxa-8-azabicyclo[3.2.1]octan-8-yl)-2-oxoethyl)-N-((S)-3-((2,3-dihydro-1H-inden-2-yl)amino)-2-hydroxypropyl)-2-ethoxybenzamide] | 629 nM
28 | NC(CNC(=O)c1ccc(C(=O)N2C3CCC2COC3)cc1)CNC1Cc2ccccc2C1 (stereo not shown) [Compound 106, N-(2-Amino-3-((2,3-dihydro-1H-inden-2-yl)amino)propyl)-4-(3-oxa-8-azabicyclo[3.2.1]octane-8-carbonyl)benzamide] | 24300 nM

Reference: US10005792B2, “Aminoindane-, aminotetrahydronaphthalene- and aminobenzocyclobutane-derived PRMT5-inhibitors” (CTXT PTY LTD, priority 2014, dated 2018)
